{"source": "patent US12624128B2", "about": "“Low molecular weight chondroitin sulfate, composition, preparation method and use thereof” (NANJING HANXIN PHARMACEUTICAL TECHNOLOGY CO., LTD., priority 2019, dated 2026)", "key": {"osteoporosis rats [1]": {"tested_on": "osteoporosis rats", "experiment": "Bone phosphorus level, osteoporosis rats (Example 24)", "type": "in vivo", "conditions": "male rats; CSO low-dose (3.8 mg/kg)+calcium acetate 158 mg/kg; compared with model group, P<0.05, P<0.01", "description": "(§1) Ninety female SD rats weighing 200-220 g were used. The rats adapted to the environment for 3 d. Fasting but freely taking water for 24 h before surgery. Rats were injected intraperitoneally with 3% chloral hydrate and anesthetised. Ten […] were used as the sham-operated group with longitudinal incisions on the skin and muscle from both sides of the lumbar and dorsal spine without removing the ovaries. For the other animals, longitudinal incisions were made from both sides of the lumbar and dorsal spine to cut the skin and muscle, and both ovaries were removed, and the wounds were sutured. All animals were intramuscular injected with penicillin for 3 consecutive days after operation. (Male rats were operated with the same method to remove testicles).\n(§2) On the second day after surgery, ovariectomized rats were randomly divided into 8 groups with […] in each group:\n(§3) On the second day after surgery, rats were given by intragastric administration with an administration volume of 0.2 mL/100 g. The sham-operated group and model group were given in the same volume of normal saline. […]\n(§4) The rats were sacrificed, and the femur on both sides was separated. The right femur was taken and measured for the following indexes: bone weight coefficient (g/100 g body weight), bone density, ash level, bone calcium or bone phosphorus, bone hydroxyproline, HE pathology. […]"}, "osteoporosis rats [2]": {"tested_on": "osteoporosis rats", "experiment": "Femoral ash level, osteoporosis rats (Example 24)", "type": "in vivo", "conditions": "male rats; CSO high, medium and low dose (15, 7.5, 3.8 mg/kg)+calcium acetate 158 mg/kg; compared with model group, P<0.01, P<0.05", "description": "as §1, §2, §3, §4"}}}
{"compound": "CC(=O)[O-].CC(=O)[O-].[Ca+2]", "note": "[Ca, Calcium acetate]", "values": [{"measurement": "bone phosphorus level", "setting": "osteoporosis rats [1]", "value": "significantly increased"}, {"measurement": "level of femoral ashes", "setting": "osteoporosis rats [2]", "value": "significantly increased"}]}
